One assay deals with human hepatocytes. Description: Western blotting of cyclin proteins in human hepatocytes. In kind it is cell-based. How it is done:
(§1) Normal human primary hepatocytes isolated from healthy adults (no known history of HCC) in suspension or freshly-frozen prior to shipment (Cryoport Systems, CA) were purchased from Triangle Research Labs, NC. Fresh hepatocytes were plated on collagen-coated tissue culture plates or glass coverslips in Williams E complete media with additives (10% fetal bovine serum, 2 mM glutamine, […] insulin, 4 ng/ml glucagon, […] transferrin, 2.5 ng/ml sodium selenite, 10,000 U/ml penicillin, […] streptomycin, 50 g/ml gentamycin) for 3 h to ensure hepatocyte adherence to plates. Subsequently, hepatocytes were maintained in Williams E minimal media free from serum and growth factors for 24 h prior to treatment. Human hepatocellular carcinoma derived Huh7, and Hep3B, were cultured in Minimum Essential Medium Eagle (MEM); SNU-387 was cultured in Roswell Park Memorial Institute (RPMI) medium and PLC/PRF/5 cultured in Dulbecco's Modified Eagle's medium (DMEM). All maintenance culture media were supplemented with 10% fetal bovine serum (FBS), L-Glutamine (2 mM), penicillin (100 units/ml) and streptomycin ([…]) at 37° C. and 5% CO2. Cells were maintained in serum free media (containing 2 mM L-Glutamine, 100 units/ml penicillin and ([…])) streptomycin for 24 h prior to treatment. Total protein extracts were obtained by homogenizing cells in total lysis buffer (50 mM Tris-HCl, pH 7.5, 0.5 M NaCl, 2 mM EGTA, 2 mM EDTA, 1.0% Triton X-100, 0.25% Deoxycholate, 1 m/ml pepstatin, 1.0 m/ml leupeptin, 1.0 m/ml aprotinin, 1.0 mM phenylmethylsulfonyl fluoride, 1.0 mM Dithiothreitol, 2.0 mM activated Na3VO4, and 2.0 mM NaF) and centrifuging at 14,000 rpm for 10 min (4° C.). Equal amounts of total proteins as determined by BCA protein Assay (Pierce, Rockford, Ill.) were analyzed by Western blotting. Blots were probed with antibody specific for a-tubulin or GAPDH to ensure equal loading of proteins in each lane.
Background: A western blot detects proteins with antibodies after separation by electrophoresis.

The test system of assay [1] is Huh7 cells. Description: Western blotting of cyclin and CDK proteins in Huh7 cells. The assay is classed as cell-based, human. How it is done:
as §1, with “treatment.” for “treatment. Total protein extracts were obtained by homogenizing cells in total lysis buffer (50 mM Tris-HCl, pH 7.5, 0.5 M NaCl, 2 mM EGTA, 2 mM EDTA, 1.0% Triton X-100, 0.25% Deoxycholate, 1 m/ml pepstatin, 1.0 m/ml leupeptin, 1.0 m/ml aprotinin, 1.0 mM phenylmethylsulfonyl fluoride, 1.0 mM Dithiothreitol, 2.0 mM activated Na3VO4, and 2.0 mM NaF) and centrifuging at 14,000 rpm for 10 min (4° C.). Equal amounts of total proteins as determined by BCA protein Assay (Pierce, Rockford, Ill.) were analyzed by Western blotting. Blots were probed with antibody specific for a-tubulin or GAPDH to ensure equal loading of proteins in each lane.”
Total protein extracts were obtained by homogenizing cells in total lysis buffer (50 mM Tris-HCl, pH 7.5, 0.5 M NaCl, 2 mM EGTA, 2 mM EDTA, 1.0% Triton X-100, 0.25% Deoxycholate, 1 m/ml pepstatin, 1.0 m/ml leupeptin, 1.0 m/ml aprotinin, 1.0 mM phenylmethylsulfonyl fluoride, 1.0 mM Dithiothreitol, 2.0 mM activated Na3VO4, and 2.0 mM NaF) and centrifuging at 14,000 rpm for 10 min (4° C.). Equal amounts of total proteins as determined by BCA protein Assay (Pierce, Rockford, Ill.) were analyzed by Western blotting. Blots were probed with antibody specific for a-tubulin or GAPDH to ensure equal loading of proteins in each lane.

For assay [2], the system named is Huh7 cells. Description: BrdU incorporation (proliferation) in Huh7 cells. The assay is classed as cell-based, human. To be noted: for BrdU incorporation / BrdU positive nuclei: nucleotide 100 μM. How it is done:
To determine whether P2 purinergic receptor activation influences HCC cell proliferation, BrdU incorporation was assessed in HCC cells maintained in SFM for 24 hours and treated with ATP for 24 hours. ATP treatment alone was sufficient to induce proliferation in each of these cell lines (Huh7, 34%; Hep3B, 46%; SNU-387, 47% and PLC/PRF/5, 24%), identifying nucleotides as liver cancer cell mitogens (FIG. 7A).
Extracellular ATP can be hydrolyzed to ADP and adenosine by ectonucleotidases at the plasma membrane. Therefore, Applicants tested the effects of ATPγS (non-hydrolyzable analog of ATP) or ADP (break down product of ATP) (100 μM) on Huh7 cell proliferation. ATPγS treatment alone was sufficient to induce BrdU incorporation as early as 12 hours (42%); maintained at 18 h (30%) and 24 h (29%) in Huh7 cells (FIG. 8). ADP was also able to independently increase the number of BrdU positive nuclei (12 h, 30%; 18 h, 35%; 24 h, 37%) (FIG. 8). Furthermore, ATP treatment (18 h) increased cell proliferation and viability in all four cell lines, as determined by MTT assay (Huh7, 65%; Hep3B, 81%; SNU-387, 90% and PLC/PRF/5, 43%) (FIG. 7B).
as §1, with “treatment.” for “treatment. Total protein extracts were obtained by homogenizing cells in total lysis buffer (50 mM Tris-HCl, pH 7.5, 0.5 M NaCl, 2 mM EGTA, 2 mM EDTA, 1.0% Triton X-100, 0.25% Deoxycholate, 1 m/ml pepstatin, 1.0 m/ml leupeptin, 1.0 m/ml aprotinin, 1.0 mM phenylmethylsulfonyl fluoride, 1.0 mM Dithiothreitol, 2.0 mM activated Na3VO4, and 2.0 mM NaF) and centrifuging at 14,000 rpm for 10 min (4° C.). Equal amounts of total proteins as determined by BCA protein Assay (Pierce, Rockford, Ill.) were analyzed by Western blotting. Blots were probed with antibody specific for a-tubulin or GAPDH to ensure equal loading of proteins in each lane.”
Formalin-fixed and paraffin embedded liver sections from HCC patients were analyzed by immunohistochemistry with anti-P2X3 antibody (Abcam, Cambridge, Mass.). HCC cells were grown on glass coverslips; BrdU (10 μM, Roche, Indianapolis, Ind.) was added to culture media for 1 h prior to fixation (cold acetone:methanol, 1:1) and stained using anti-BrdU antibody (DAKO, Carpinteria, Calif.) and DAB Peroxidase Substrate Kit (Vector Labs, Burlingame, Calif.), according to manufacturer's instructions. Counterstaining was done with hematoxylin. BrdU positive cells were counted and expressed as a percentage of the total number of cells in ten randomly selected high-power fields (20×) per coverslips.
A general note: Dividing cells build labelled thymidine or BrdU into new DNA.

Where [3] appears, read: AF-353 5 μM pre-treatment, ATP 24 h.
Setting [4] is: antagonist alone, serum-free conditions.

This note sets out measurements from US20180271863A1, “TARGETING P2 PURINERGIC RECEPTORS TO TREAT HEPATOCELLULAR CARCINOMA (HCC)” (Baylor College of Medicine, priority 2015, published 2018).

Structures are written as SMILES. Entries after “also recorded” stand apart in the source; their conditions may differ.

Regarding `COc1cc(C(C)C)c(Oc2cnc(N)nc2N)cc1I` [AF-353], the “effect on ATP-mediated induction of cyclin D3 and cyclin E expression” value in the assay on human hepatocytes (setting [3]) and with Huh7 cells [1] (setting [3]) was “completely attenuated” throughout. Further, the “effect on baseline cyclin protein expression” value in the assay on Huh7 cells [1] (setting [4]) is reported as “reduce”. For the same molecule, the “effect on ATP-mediated increase in BrdU incorporation” value in the assay on Huh7 cells [2] (AF-353 5 μM pre-treatment, ATP 100 μM 24 hr) is “completely abolished; also recorded: attenuates”. Moreover, in the assay with Huh7 cells [2] (setting [4]), the “effect on baseline BrdU-positive cells” value was “reduce”.

Regarding `Nc1ncnc2c1ncn2[C@@H]1O[C@H](COP(=O)(O)OP(=O)(O)OP(=O)(O)O)[C@@H](O)[C@H]1O` [ATP], the “cyclin D3 protein expression” value in the assay on Huh7 cells [1] (ATP 24 hours, serum-free) turned out to be 3.2 fold. Moreover, the “proliferation (BrdU incorporation) induced by ATP” value with Huh7 cells [2] (SFM 24 hours, ATP 24 hours) is 34%.

Take `Nc1ncnc2c1ncn2[C@@H]1O[C@H](COP(=O)(O)OP(=O)(O)OP(O)(O)=S)[C@@H](O)[C@H]1O` [ATPγS]: the “cyclin D3 protein expression” value with human hepatocytes (ATPγS 24 h) is given as 2.0 fold; in the assay with Huh7 cells [1] (ATPγS 18 h), 2.7 fold; with Huh7 cells [1] (ATPγS 24 h), 2.8 fold; in the assay with Huh7 cells [1] (ATPγS 30 h) it was 2.1 fold. Besides, the “cyclin E protein expression” value with human hepatocytes (ATPγS 24 h) stood at 2.0 fold; in the assay with Huh7 cells [1] (ATPγS 18 h) it was 1.7 fold; in the assay with Huh7 cells [1] (ATPγS 24 h), 1.3 fold; with Huh7 cells [1] (ATPγS 30 h) it was 2.2 fold. The “cyclin A protein expression” value in the assay with Huh7 cells [1] (ATPγS 18 h) came out at 1.7 fold; with Huh7 cells [1] (ATPγS 24 h), 1.2 fold; in the assay with Huh7 cells [1] (ATPγS 30 h), 1.2 fold. The molecule further had a CDK2 protein expression with Huh7 cells [1] (ATPγS 30 h) of 1.6 fold. Further, the CDK4 protein expression in the assay with Huh7 cells [1] (ATPγS 30 h) was determined as 1.4 fold. For the same molecule, the “BrdU incorporation / BrdU positive nuclei” value in the assay on Huh7 cells [2] (12 h) was 42%; in the assay on Huh7 cells [2] (18 h), 30%; in the assay with Huh7 cells [2] (24 h), 29%.
